Source: patent US7662767B2, “Polynucleotide intercalator interceptors and inhibitors” (Materials Evolution and Development USA, Inc., priority 2000, dated 2010)
Several values for one entry are separate records, joined by “and”; a condition that tells them apart may be missing. Identical values can stand only once.

Assays:
herring sperm dsDNA = assay: Acridine orange with dsDNA, spectrofluorometry λem 530 nm; assay type: binding; settings: AO-DNA, AO [2 μM], DNA [>20 μM], hydrochloride
Protocol: In another implementation, a spectrofluorometric analysis of the interaction of AO with dsDNA at λex 485 nm and λem 530 nm and 635 nm was also conducted. The interaction of DNA with lower concentrations of AO [2 μM] mimicked the results found at the higher AO concentration of 20 μM for bp:AO ratios of 4:1 and above. The association curve for AO over a series of steadily increasing DNA concentrations ranging from […] of DNA is shown in FIG. 3-8.
The example shown in FIG. 3-8 illustrating the effect of NaCl on the fluorescence of 2 μM AO was determined over a range of bp:AO ratios from 4 to 62.5. The excitation wavelength was 485 nm while emission was monitored at 530 nm. The association constant for 2 μM AO with DNA was determined to be 31,990±310 M^−1 (R^2=0.98) in the absence of NaCl and 31,690±498 M^−1 (R^2=0.96) in the presence of NaCl. Error bars are shown to denote confidence intervals at 95% unless hidden by a data point symbol. The delta fluorescence values were obtained by subtracting the background fluorescence of HEPES buffered AO at 2 μM in the absence of DNA. The association constant for the interaction of AO with DNA was determined to be 31,990±3,190 M^−1.

[1] = test system: Drosophila salivary gland polytene chromosome; assay: Removal of DNA binding stains from polytene chromosome bands by xanthine wash; set-up: species or system Drosophila melagaster; settings: for Degree of Stain Removal, Exposure to AM (100 mM) / Degree of Stain Removal, Exposure to CAF (100 mM): 15 minute wash, static, hydrochloride
Protocol: In another implementation, giant polytene chromosomes were prepared by the squash technique from the salivary gland of Drosophila melagaster larva The salivary gland was placed on a microscope slide, squashed with a glass cover slide, fixed with acidic acid, rinsed with distilled water, and allowed to dry (kindly provided by Linda Chadwell, UTHSCSA-IBT). Three known DNA intercalators, ethidium bromide (98% purity, Aldrich Chemical Company, Milwaukee, Wis.), doxorubicin (98%, Sigma Chemnical Company, St. Louis, Mo.), and acridine orange plus the minor groove binding DNA stain Hoechst 33258 (98%, ACROS Chemical Company, NJ) were prepared in distilled water at a concentration of 1 mM (for chemical structures see FIG. 4-1, where acridine orange (3,6-bis [dimethylamino] acridine) is shown in Panel A, ethidium bromide is shown in Panel B, doxorubicin is shown in Panel C, Hoechst 33258 is shown in Panel D). The slides with prepared chromosomes were immersed in these stains for a period of 30 minutes, rinsed with distilled water, and dried at room temperature. Fluorescence microscopic analysis was conducted at λex 360 nm and photomicrographs were conducted on a Zeiss Model 63 Microscope with a xenon source fluorescent emitter. Photomicrographs were taken using Kodak Gold 35 mm ASA 1600 speed film noting the position of one individual chromosome on the slide. The stained slides were then subjected to 100 mM caffeine or 100 mM aminophylline under static conditions for a period of 15 minutes, rinsed with distilled water, then allowed to dry at room temperature. The presence of the same individual unstained chromosome in the field was confirmed by phase contrast microscopy. The chromosome was viewed again under fluorescence microscopy at […], and color recorded. Slides were re-stained by immersion in the 1 mM stain for a period of 30 minutes, rinsed with distilled water, and dried at room temperature, and the same individual chromosome was examined by fluorescence microscopy and the fluorescence color recorded.
FIG. 4-3 depicts three photomicrographs of the same Drosophila polytene chromosome: after staining with the DNA minor groove binder Hoechst 33258 dye (Panel A), after rinsing with CAF for 15 minutes (Panel B), and a phase contrast verification of the presence of the chromosome after the CAF rinse (Panel C). Table 4-4 summarizes the results from the experiments using caffeine (CAF) and aminophylline (AM) to remove the following DNA intercalators: doxorubicin, ethidium bromide, acridine orange, and the DNA minor groove binder Hoechst 33258 from their binding sites within polytene chromosomes. […] With all DNA intercalators, the staining of chromosome bands was intense before the xanthine rinses and was again intense following re-staining.

[2] = Absorbance binding spectra of doxorubicin titrated with caffeine or chlorophyllin; settings: 10 μM doxorubicin

| SMILES | K ± S.D. (herring sperm dsDNA; Fluorescence plus NaCl) | K ± S.D. (herring sperm dsDNA; Fluorescence plus NaCl, listed as AO-DNA) | K ± S.D. (herring sperm dsDNA; Fluorescence, absence of NaCl) | K ± S.D. (herring sperm dsDNA; Fluorescence, absence of NaCl, listed as AO-DNA) | Re-staining following Xanthine Exposure ([1]; 1 mM stain, 30 minutes) | Staining before Xanthine Exposure ([1]; 1 mM stain, 30 minutes) | Degree of Stain Removal, Exposure to AM (100 mM) [1] | Degree of Stain Removal, Exposure to CAF (100 mM) [1] | Degree of Stain Removal, Exposure to AM (100 mM) ([1]; listed as Acridine Orange) | Degree of Stain Removal, Exposure to CAF (100 mM) ([1]; listed as Acridine Orange) | binding to doxorubicin [2] |
| --- | --- | --- | --- | --- | --- | --- | --- | --- | --- | --- | --- |
| CN(C)c1ccc2cc3ccc(N(C)C)cc3nc2c1.Cl [AO, 3,6-bis[dimethylamino]acridine hydrochloride] | 31,690±498 M^−1 and 31,690±4,980 M^−1 | 31,690 ± 4,890 M^−1 | 31,990±310 M^−1 and 31,990±3,190 M^−1 | 31,990 ± 3,190 M^−1 | Complete | Banding | completely removed | did not completely remove the stain | Complete | Almost |  |
| Cn1c(=O)c2c(ncn2C)n(C)c1=O [1,3,7-trimethyl xanthine (caffeine), 1,3,7-trimethyl xanthine] |  |  |  |  |  |  |  |  |  |  | binds with doxorubicin |
